From patent US12427134B2, “Methods of reducing the risk of cardiovascular events in a subject with atrial fibrillation and/or atrial flutter” (priority 2019, dated 2025)

Tested on: hypertriglyceridemic patients with cardiovascular disease or at high risk for cardiovascular disease
Experiment: REDUCE-IT: electrocardiograms, vital signs (blood pressure, pulse), weight and waist circumference
Assay type: in vivo, human
Experimental: Blood pressure was measured using a standardized process: • Patient sat for ≥5 minutes with feet flat on the floor and measurement arm supported so that the midpoint of the manometer cuff was at heart level; and • Used a mercury sphygmomanometer or automatic blood pressure device with an appropriately sized cuff with the bladder centered over the brachial artery.
Blood pressure was recorded to the nearest 2 mmHg mark on the manometer or to the nearest whole number on an automatic device. A blood pressure reading was repeated 1 to 2 minutes later, and the second reading recorded to the nearest 2 mmHg mark.
Height, Weight and Body Mass Index: Height and weight were measured. Measurement of weight was performed with the patient dressed in indoor clothing, with shoes removed, and bladder empty.
Waist Circumference: Waist circumference was measured with a tape measure, as follows: Start at the top of the hip bone then bring the tape measure all the way around—level with the navel. Make sure the tape measure is snug, but without compressing the skin, and that it is parallel with the floor. Patients should not have held their breath while measuring waist circumference.
12-Lead Electrocardiogram (ECG): ECGs (standard 12-lead) were obtained annually. Site personnel made every attempt to perform a patient's ECG using the same equipment at each visit. ECGs were reviewed by the site for the detection of silent MI. Silent MIs were sent for event adjudication. All post-randomization ECGs (protocol-specified and other) were sent to the CEC for evaluation of silent MI. The 12-lead ECG parameters included Heart Rate (bpm), PR Interval (msec), QRS Interval (msec), QT Interval (msec), and QTc Interval (msec) were measured, and Overall Interpretation and Silent MI (Yes/No) were summarized for all patients at Screening (Visit 1), Randomization visit (Visit 2; Day 0) and all other follow-up visits including the last visit of the study.
A treatment-emergent PCS high value at any time was defined as a change from a value less than or equal to the defined PCS value at baseline to a PCS high value at any post-baseline measurement. A treatment-emergent PCS low value at any time was defined as a change from a value greater than or equal to the lower PCS value at baseline to a PCS low value at any post-baseline measurement.
As an additional exploratory analysis, the relationship between post-baseline biomarker values and treatment effects with the primary and key secondary endpoints were assessed by adding biomarker values (for example, at 4 months, or at 1 year, etc.) as time-dependent covariates in the Cox proportional hazards model. Diagnostic plots for the proportional hazard's assumption was evaluated. Weight was measured at the screening visit and at all follow-up visits, including the last visit of the study. Waist circumference was measured at the randomization visit (Visit 2; Day 0), Visit 5 (Day 720) and the last visit of the study. Descriptive statistics were presented by visit and treatment group for baseline, post-treatment change from baseline, and the percent change from baseline. Analysis methods for repeated measurements were used to compare percent change from baseline between treatments.

[1] = Baseline (Visit 2), Safety population
[2] = Visit 9 (n = 8), Safety population
[3] = any post-baseline visit, 3683 patients with data
[4] = any post-baseline visit, 3823 patients with data
[5] = any post-baseline visit, 3834 patients with data
[6] = any post-baseline visit, 3983 patients with data

SMILES: CC/C=C\C/C=C\C/C=C\C/C=C\C/C=C\CCCC(=O)OCC [AMR101, eicosapentaenoic acid ethyl ester]
- Diastolic Blood Pressure, mean baseline value [1]: 78.1 mmHg
- ECG Heart Rate, mean baseline value [1]: 66.6 beats/minute
- Heart Rate (vital sign), mean baseline value [1]: 68.1 beats/minute
- PR Interval, mean baseline value [1]: 172.2 ms
- QTc Interval, mean baseline value [1]: 422.4 ms
- Systolic Blood Pressure, mean baseline value [1]: 132.6 mmHg
- Diastolic Blood Pressure, mean change from baseline (Last Visit, Safety population): −0.7 mmHg
- ECG Heart Rate, mean change from baseline (Last Visit, Safety population): 2.1 beats/minute
- Heart Rate (vital sign), mean change from baseline (Last Visit, Safety population): 1.7 beats/minute
- PR Interval, mean change from baseline (Last Visit, Safety population): 1.7 ms
- QTc Interval, mean change from baseline (Last Visit, Safety population): 5.0 ms
- Systolic Blood Pressure, mean change from baseline (Last Visit, Safety population): 0.9 mmHg
- ECG TEAE - ECG signs of myocardial ischemia, % patients (Safety population, N = 4089): (0.0) %
- ECG TEAE - ECG signs of myocardial ischemia, n patients (Safety population, N = 4089): 2
- ECG TEAE - Electrocardiogram PR prolongation, % patients (Safety population, N = 4089): (0.0) %
- ECG TEAE - Electrocardiogram PR prolongation, n patients (Safety population, N = 4089): 0
- ECG TEAE - Electrocardiogram Q wave abnormal, % patients (Safety population, N = 4089): (0.0) %
- ECG TEAE - Electrocardiogram Q wave abnormal, n patients (Safety population, N = 4089): 1
- ECG TEAE - Electrocardiogram QRS complex abnormal, % patients (Safety population, N = 4089): (0.0) %
- ECG TEAE - Electrocardiogram QRS complex abnormal, n patients (Safety population, N = 4089): 2
- ECG TEAE - Electrocardiogram QT prolonged, % patients (Safety population, N = 4089): (0.2) %
- ECG TEAE - Electrocardiogram QT prolonged, n patients (Safety population, N = 4089): 10
- ECG TEAE - Electrocardiogram ST segment abnormal, % patients (Safety population, N = 4089): (0.1) %
- ECG TEAE - Electrocardiogram ST segment abnormal, n patients (Safety population, N = 4089): 6
- ECG TEAE - Electrocardiogram ST segment depression, % patients (Safety population, N = 4089): (0.1) %
- ECG TEAE - Electrocardiogram ST segment depression, n patients (Safety population, N = 4089): 4
- ECG TEAE - Electrocardiogram ST-T change, % patients (Safety population, N = 4089): (0.0) %
- ECG TEAE - Electrocardiogram ST-T change, n patients (Safety population, N = 4089): 1
- ECG TEAE - Electrocardiogram ST-T segment abnormal, % patients (Safety population, N = 4089): (0.0) %
- ECG TEAE - Electrocardiogram ST-T segment abnormal, n patients (Safety population, N = 4089): 2
- ECG TEAE - Electrocardiogram T wave abnormal, % patients (Safety population, N = 4089): (0.1) %
- ECG TEAE - Electrocardiogram T wave abnormal, n patients (Safety population, N = 4089): 6
- ECG TEAE - Electrocardiogram T wave amplitude decreased, % patients (Safety population, N = 4089): (0.0) %
- ECG TEAE - Electrocardiogram T wave amplitude decreased, n patients (Safety population, N = 4089): 0
- ECG TEAE - Electrocardiogram T wave inversion, % patients (Safety population, N = 4089): (0.2) %
- ECG TEAE - Electrocardiogram T wave inversion, n patients (Safety population, N = 4089): 7
- ECG TEAE - Electrocardiogram T wave normal, % patients (Safety population, N = 4089): (0.0) %
- ECG TEAE - Electrocardiogram T wave normal, n patients (Safety population, N = 4089): 0
- ECG TEAE - Electrocardiogram abnormal, % patients (Safety population, N = 4089): (0.2) %
- ECG TEAE - Electrocardiogram abnormal, n patients (Safety population, N = 4089): 10
- ECG TEAE - Electrocardiogram change, % patients (Safety population, N = 4089): (0.1) %
- ECG TEAE - Electrocardiogram change, n patients (Safety population, N = 4089): 3
- ECG TEAE - Exercise electrocardiogram abnormal, % patients (Safety population, N = 4089): (0.0) %
- ECG TEAE - Exercise electrocardiogram abnormal, n patients (Safety population, N = 4089): 1
- Diastolic Blood Pressure, mean change from baseline (Visit 3, Safety population): 0.1 mmHg
- Heart Rate (vital sign), mean change from baseline (Visit 3, Safety population): 1.2 beats/minute
- Systolic Blood Pressure, mean change from baseline (Visit 3, Safety population): −0.5 mmHg
- Diastolic Blood Pressure, mean change from baseline (Visit 4, Safety population): −0.1 mmHg
- ECG Heart Rate, mean change from baseline (Visit 4, Safety population): 1.2 beats/minute
- Heart Rate (vital sign), mean change from baseline (Visit 4, Safety population): 0.9 beats/minute
- PR Interval, mean change from baseline (Visit 4, Safety population): -0.3 ms
- QTc Interval, mean change from baseline (Visit 4, Safety population): 1.8 ms
- Systolic Blood Pressure, mean change from baseline (Visit 4, Safety population): −0.2 mmHg
- Diastolic Blood Pressure, mean change from baseline (Visit 5, Safety population): −0.1 mmHg
- ECG Heart Rate, mean change from baseline (Visit 5, Safety population): 1.7 beats/minute
- Heart Rate (vital sign), mean change from baseline (Visit 5, Safety population): 1.3 beats/minute
- PR Interval, mean change from baseline (Visit 5, Safety population): 0.4 ms
- QTc Interval, mean change from baseline (Visit 5, Safety population): 2.8 ms
- Systolic Blood Pressure, mean change from baseline (Visit 5, Safety population): 0.5 mmHg
- Diastolic Blood Pressure, mean change from baseline (Visit 6, Safety population): −0.4 mmHg
- ECG Heart Rate, mean change from baseline (Visit 6, Safety population): 1.6 beats/minute
- Heart Rate (vital sign), mean change from baseline (Visit 6, Safety population): 1.4 beats/minute
- PR Interval, mean change from baseline (Visit 6, Safety population): 0.8 ms
- QTc Interval, mean change from baseline (Visit 6, Safety population): 3.7 ms
- Systolic Blood Pressure, mean change from baseline (Visit 6, Safety population): 0.9 mmHg
- Diastolic Blood Pressure, mean change from baseline (Visit 7, Safety population): −0.5 mmHg
- ECG Heart Rate, mean change from baseline (Visit 7, Safety population): 1.8 beats/minute
- Heart Rate (vital sign), mean change from baseline (Visit 7, Safety population): 1.5 beats/minute
- PR Interval, mean change from baseline (Visit 7, Safety population): 1.4 ms
- QTc Interval, mean change from baseline (Visit 7, Safety population): 5.0 ms
- Systolic Blood Pressure, mean change from baseline (Visit 7, Safety population): 0.8 mmHg
- Diastolic Blood Pressure, mean change from baseline (Visit 8, Safety population): −1.0 mmHg
- ECG Heart Rate, mean change from baseline (Visit 8, Safety population): 1.4 beats/minute
- Heart Rate (vital sign), mean change from baseline (Visit 8, Safety population): 0.9 beats/minute
- PR Interval, mean change from baseline (Visit 8, Safety population): 2.2 ms
- QTc Interval, mean change from baseline (Visit 8, Safety population): 6.6 ms
- Systolic Blood Pressure, mean change from baseline (Visit 8, Safety population): 0.4 mmHg
- PR Interval, mean change from baseline (Visit 9 (n = 5), Safety population): -21.2 ms
- ECG Heart Rate, mean change from baseline (Visit 9 (n = 7), Safety population): 7.6 beats/minute
- Diastolic Blood Pressure, mean change from baseline [2]: −2.7 mmHg
- Heart Rate (vital sign), mean change from baseline [2]: 2.8 beats/minute
- Systolic Blood Pressure, mean change from baseline [2]: −5.4 mmHg
- PCS ECG finding: PR Interval <120 msec, % patients [3]: (7.1) %
- PCS ECG finding: PR Interval <120 msec, n patients [3]: 261
- PCS ECG finding: PR Interval >120 msec and increase >20 msec from baseline, % patients [3]: (24.8) %
- PCS ECG finding: PR Interval >120 msec and increase >20 msec from baseline, n patients [3]: 913
- PCS ECG finding: QTc Interval >500 msec, % patients [4]: (5.4) %
- PCS ECG finding: QTc Interval >500 msec, n patients [4]: 208
- PCS ECG finding: QRS Interval >110 msec, % patients [5]: (29.3) %
- PCS ECG finding: QRS Interval >110 msec, n patients [5]: 1124
- Diastolic Blood Pressure Decrease of ≥10 mmHg, % patients [6]: (39.4) %
- Diastolic Blood Pressure Decrease of ≥10 mmHg, n patients [6]: 1569
- Diastolic Blood Pressure Increase of ≥10 mmHg, % patients [6]: (36.2) %
- Diastolic Blood Pressure Increase of ≥10 mmHg, n patients [6]: 1442
- Diastolic Blood Pressure PCS High ≥100 mmHg and increase of ≥10 mmHg, % patients [6]: (4.5) %
- Diastolic Blood Pressure PCS High ≥100 mmHg and increase of ≥10 mmHg, n patients [6]: 179
- Diastolic Blood Pressure PCS High ≥100 mmHg, % patients [6]: (5.6) %
- Diastolic Blood Pressure PCS High ≥100 mmHg, n patients [6]: 223
- Diastolic Blood Pressure PCS Low ≤50 mmHg and decrease of ≥10 mmHg, % patients [6]: (0.9) %
- Diastolic Blood Pressure PCS Low ≤50 mmHg and decrease of ≥10 mmHg, n patients [6]: 35
- Diastolic Blood Pressure PCS Low ≤50 mmHg, % patients [6]: (1.1) %
- Diastolic Blood Pressure PCS Low ≤50 mmHg, n patients [6]: 42
- Pulse Decrease of ≥15 beats/min, % patients [6]: (14.1) %
- Pulse Decrease of ≥15 beats/min, n patients [6]: 562
- Pulse Increase of ≥15 beats/min, % patients [6]: (27.4) %
- Pulse Increase of ≥15 beats/min, n patients [6]: 1092
- Pulse PCS High ≥90 beats/min and increase of ≥15 beats/min, % patients [6]: (9.3) %
- Pulse PCS High ≥90 beats/min and increase of ≥15 beats/min, n patients [6]: 370
- Pulse PCS High ≥90 beats/min, % patients [6]: (13.8) %
- Pulse PCS High ≥90 beats/min, n patients [6]: 551
- Pulse PCS Low ≤50 beats/min and decrease of ≥15 beats/min, % patients [6]: (1.7) %
- Pulse PCS Low ≤50 beats/min and decrease of ≥15 beats/min, n patients [6]: 68
- Pulse PCS Low ≤50 beats/min, % patients [6]: (7.4) %
- Pulse PCS Low ≤50 beats/min, n patients [6]: 293
- Systolic Blood Pressure Decrease of ≥20 mmHg, % patients [6]: (25.3) %
- Systolic Blood Pressure Decrease of ≥20 mmHg, n patients [6]: 1009
- Systolic Blood Pressure Increase of ≥20 mmHg, % patients [6]: (29.2) %
- Systolic Blood Pressure Increase of ≥20 mmHg, n patients [6]: 1163
- Systolic Blood Pressure PCS High ≥160 mmHg and increase of ≥20 mmHg, % patients [6]: (11.3) %
- Systolic Blood Pressure PCS High ≥160 mmHg and increase of ≥20 mmHg, n patients [6]: 450
- Systolic Blood Pressure PCS High ≥160 mmHg, % patients [6]: (18.0) %
- Systolic Blood Pressure PCS High ≥160 mmHg, n patients [6]: 715
- Systolic Blood Pressure PCS Low ≤90 mmHg and decrease of ≥20 mmHg, % patients [6]: (0.7) %
- Systolic Blood Pressure PCS Low ≤90 mmHg and decrease of ≥20 mmHg, n patients [6]: 27
- Systolic Blood Pressure PCS Low ≤90 mmHg, % patients [6]: (1.0) %
- Systolic Blood Pressure PCS Low ≤90 mmHg, n patients [6]: 40
